We go through ten compounds from US20210267953A1, “SUBSTITUTED OXAZOLIDINONES FOR THE TREATMENT OF MAMMALIAN INFECTIONS” (CADILA HEALTHCARE LIMITED, priority 2018, published 2021).

SMILES strings stand for the structures. Converted amounts (≈) assume the structure as drawn.

As usually defined, the MIC is the lowest concentration found to suppress growth.

For this test, the system named is Mycobacterium tuberculosis H37Rv. The experiment in a line: Minimum Inhibitory Concentration (MIC) determination, MABA assay. It counts as cell-based. As to conditions: Microplate Alamar Blue Assay, M. tuberculosis H37Rv log phase culture in 7H-9 medium, 7 days at 37° C., lowest concentration that prevents colour change blue to pink, read-out: Mtb MIC. (Resazurin is reduced to fluorescent resorufin, in cell work by metabolically active cells.)
In the case of `CC(=O)NC[C@H]1CN(c2cc(F)c(N3CCC4(CC3)COC4)c(F)c2)C(=O)O1` [Example 6, (S)—N-((3-(3,5-difluoro-4-(2-oxa-7-azaspiro[3.5]nonan-7-yl)phenyl)-2-oxooxazolidin-5-yl)methyl)acetamide], the MIC was 1.25 to 2.5 µM (≈ 0.494 to 0.989 µg/mL). The result for `CC(=O)NC[C@H]1CN(c2ccc(N3CCC(C4CS(=O)(=O)C4)CC3)c(F)c2)C(=O)O1` [Example 10, (S)—N-((3-(4-(4-(1,1-dioxidothietan-3-yl)piperidin-1-yl)-3-fluorophenyl)-2-oxooxazolidin-5-yl)methyl)acetamide] reads 2.5 µM (≈ 1.1 µg/mL). The result for `COC(=O)NC[C@H]1CN(c2cc(F)c(N3CCC4(CC3)CS(=O)(=O)C4)c(F)c2)C(=O)O1` [Example 4, (S)-methyl ((3-(4-(2,2-dioxido-2-thia-7-azaspiro[3.5]nonan-7-yl)-3,5-difluorophenyl)-2-oxooxazolidin-5-yl)methyl)carbamate] reads 1.25 µM (≈ 0.574 µg/mL); that for `CC(=O)NC[C@H]1CN(c2cc(F)c(N3CCC(C4COC4)CC3)c(F)c2)C(=O)O1` [Example 8, (S)—N-((3-(3,5-difluoro-4-(4-(oxetan-3-yl)piperidin-1-yl)phenyl)-2-oxooxazolidin-5-yl)methyl)acetamide], 2.5 µM (≈ 1.02 µg/mL); that for `CC(=O)NC[C@H]1CN(c2ccc(N3CCC4(CC3)CS(=O)(=O)C4)c(F)c2)C(=O)O1` [Example 5, (S)—N-((3-(4-(2,2-dioxido-2-thia-7-azaspiro[3.5]nonan-7-yl)-3-fluorophenyl)-2-oxooxazolidin-5-yl)methyl)acetamide], 1.25 µM (≈ 0.532 µg/mL).

As for `O=C1O[C@@H](Cn2ccnn2)CN1c1cc(F)c(N2CCC3(CC2)CS(=O)(=O)C3)c(F)c1` [Example 1, (R)-5-((1H-1,2,3-triazol-1-yl)methyl)-3-(4-(2,2-dioxido-2-thia-7-azaspiro[3.5]nonan-7-yl)-3,5-difluorophenyl)oxazolidin-2-one], the MIC turned out to be 1.25 µM (≈ 0.567 µg/mL).

Regarding `O=C1O[C@@H](CNc2ccon2)CN1c1cc(F)c(N2CCC3(CC2)CS(=O)(=O)C3)c(F)c1` [Example 2, (S)-3-(4-(2,2-dioxido-2-thia-7-azaspiro[3.5]nonan-7-yl)-3,5-difluorophenyl)-5-((isoxazol-3-ylamino)methyl)oxazolidin-2-one], the MIC turned out to be 1.25 µM (≈ 0.586 µg/mL).

As to `CC(=O)NC[C@H]1CN(c2cc(F)c(N3CCC(C4CS(=O)(=O)C4)CC3)c(F)c2)C(=O)O1` [Example 9, (S)—N-((3-(4-(4-(1,1-dioxidothietan-3-yl)piperidin-1-yl)-3,5-difluorophenyl)-2-oxooxazolidin-5-yl)methyl)acetamide], the MIC came to 1.25 µM (≈ 0.572 µg/mL).

On to `CC(=O)NC[C@H]1CN(c2cc(F)c(N3CCC4(CC3)CS(=O)(=O)C4)c(F)c2)C(=O)O1` [Example 3, (S)—N-((3-(4-(2,2-dioxido-2-thia-7-azaspiro[3.5]nonan-7-yl)-3,5-difluorophenyl)-2-oxooxazolidin-5-yl)methyl)acetamide], for which the minimum inhibitory concentration (MIC) amounted to 1.25 µM (≈ 0.554 µg/mL).

Consider `CC(=O)NC[C@H]1CN(c2ccc(N3CCC4(CC3)COC4)c(F)c2)C(=O)O1` [Example 7, (S)—N-((3-(3-fluoro-4-(2-oxa-7-azaspiro[3.5]nonan-7-yl)phenyl)-2-oxooxazolidin-5-yl)methyl)acetamide], for which the MIC is 2.5 µM (≈ 0.944 µg/mL).
